Experimental data from the NIST ThermoML archive (doi:10.1016/j.jct.2015.06.024).

Assay: mn = molality of the nth substance listed, in mol/kg
Settings: 84.5 kPa, Liquid; for speed of sound: Frequency=3 MHz, Sing-around technique in a fixed-path interferometer; for mass density: Vibrating tube method

CCCCO [butan-1-ol] + O
Settings	mass density, 288.15 K [kg/m3]	mass density, 293.15 K [kg/m3]	mass density, 298.15 K [kg/m3]	mass density, 303.15 K [kg/m3]	mass density, 308.15 K [kg/m3]	speed of sound, 288.15 K [m/s]	speed of sound, 293.15 K [m/s]	speed of sound, 298.15 K [m/s]	speed of sound, 303.15 K [m/s]	speed of sound, 308.15 K [m/s]
m1 = 0.01342	998.939	998.039	996.876	995.476	993.859	1467.6	1483.6	1497.7	1510	1520.6
m1 = 0.02701	998.774	997.873	996.708	995.306	993.686	1468.7	1484.7	1498.7	1510.9	1521.3
m1 = 0.04053	998.614	997.712	996.547	995.143	993.508	1469.9	1485.7	1499.6	1511.7	1522.2
m1 = 0.05431	998.455	997.552	996.384	994.976	993.352	1471	1486.7	1500.5	1512.5	1522.9
m1 = 0.06771	998.296	997.389	996.218	994.809	993.182	1472.1	1487.7	1501.4	1513.3	1523.6
m1 = 0.08132	998.137	997.231	996.058	994.647	992.992	1473.1	1488.6	1502.3	1514.1	1524.4
m1 = 0.1063	997.846	996.934	995.757	994.341	992.707	1475.1	1490.5	1504	1515.7	1525.7
m1 = 0.1358	997.518	996.602	995.417	993.998	992.357	1477.4	1492.5	1505.8	1517.4	1527.2
